Experimental data from patent publication US6573260B1, “Cycloalkyl-substituted aminomethylpyrrolidine derivatives” (Daiichi Pharmaceutical Co., Ltd., priority 1998, dated 2003).
In brackets after ≈: the same amount, converted by molar mass. Where two headings read alike, the source gives them in different places.

Experiments:
Assay in all cases: antibacterial activity (MIC), standard method of the Japan Society of Chemotherapy
Type in all cases: cell-based
E. coli, NIHJ = test system: E. coli, NIHJ
Description: (§1) The antibacterial activity of each compound of the present invention was measured in accordance with the standard method specified by the Japan Society of Chemotherapy, with the results shown in the following Table 2 as MIC values (μg/ml). In this connection, MIC values of levofloxacin (LVFX) and ciprofloxacin (CPEX) are also shown for the sake of comparison with the MIC values of the compounds of the present invention.

E. faecalis, ATCC 19433 = test system: E. faecalis, ATCC 19433
Description: as §1

K. pneumoniae TYPE 1 = test system: K. pneumoniae TYPE 1
Description: as §1

PS. aeruginosa, 32121 = test system: PS. aeruginosa, 32121
Description: as §1

Pr. vulgaris, 08601 = test system: Pr. vulgaris, 08601
Description: as §1

Ps. aeruginosa, 32104 = test system: Ps. aeruginosa, 32104
Description: as §1

S. aureus, 870307 = test system: S. aureus, 870307
Description: as §1

S. aureus, FDA 209P = test system: S. aureus, FDA 209P
Description: as §1

S. epidermidis, 56500 = test system: S. epidermidis, 56500
Description: as §1

S. flexneri, 2A 5503 = test system: S. flexneri, 2A 5503
Description: as §1

Ser. marcescens, 10100 = test system: Ser. marcescens, 10100
Description: as §1

Str. pneumoniae, J24 = test system: Str. pneumoniae, J24
Description: as §1

Str. pyogenes, G-36 = test system: Str. pyogenes, G-36
Description: as §1

X. maltophilia, IID 1275 = test system: X. maltophilia, IID 1275
Description: as §1

[1] = Escherichia coli, read-out: MIC
[2] = Enterococcus faecalis, ATCC19433, read-out: MIC
[3] = Klebsiella pneumoniae, TYPE1, read-out: MIC
[4] = Pseudomonas aeruginosa, read-out: MIC
[5] = Proteus vulgaris, read-out: MIC
[6] = Staphylococcus aureus, read-out: MIC
[7] = Staphylococcus aureus, FDA209P, read-out: MIC
[8] = Staphylococcus epidermidis, read-out: MIC
[9] = Shigella flexneri, 2A5503, read-out: MIC
[10] = Serratia marcescens, read-out: MIC
[11] = Streptococcus pneumoniae, read-out: MIC
[12] = Streptococcus pyogenes, G36, read-out: MIC
[13] = Stenotrophomonas maltophilia, IID1275, read-out: MIC

| SMILES | MIC (E. coli, NIHJ) | MIC (E. faecalis, ATCC 19433) [µg/mL] | MIC (K. pneumoniae TYPE 1) [µg/mL] | MIC (PS. aeruginosa, 32121) [µg/mL] | MIC (Pr. vulgaris, 08601) [µg/mL] | MIC (Ps. aeruginosa, 32104) [µg/mL] | MIC (S. aureus, 870307) [µg/mL] | MIC (S. aureus, FDA 209P) | MIC (S. epidermidis, 56500) | MIC (S. flexneri, 2A 5503) | MIC (Ser. marcescens, 10100) [µg/mL] | MIC (Str. pneumoniae, J24) | MIC (Str. pyogenes, G-36) | MIC (X. maltophilia, IID 1275) [µg/mL] | MIC (E. coli, NIHJ; [1]) [µg/mL] | MIC (E. faecalis, ATCC 19433; [2]) [µg/mL] | MIC (K. pneumoniae TYPE 1; [3]) [µg/mL] | MIC (PS. aeruginosa, 32121; [4]) [µg/mL] | MIC (Pr. vulgaris, 08601; [5]) [µg/mL] | MIC (Ps. aeruginosa, 32104; [4]) [µg/mL] | further results |
| --- | --- | --- | --- | --- | --- | --- | --- | --- | --- | --- | --- | --- | --- | --- | --- | --- | --- | --- | --- | --- | --- |
| COc1c(N2CCC(C(N)C3CC3)C2)c(F)cc2c(=O)c(C(=O)O)cn(C3CC3F)c12 (stereo not drawn) [compound 6] | ≦0.003 μg/ml | 0.025 (≈ 0.0577 µM) | 0.05 (≈ 0.115 µM) | 0.05 (≈ 0.115 µM) | 0.013 (≈ 0.03 µM) | 0.1 (≈ 0.231 µM) | 0.1 (≈ 0.231 µM) | ≦0.003 μg/ml | 0.006 µg/mL (≈ 0.0138 µM) | 0.006 µg/mL (≈ 0.0138 µM) | 0.1 (≈ 0.231 µM) | ≦0.003 μg/ml | ≦0.003 μg/ml | 0.2 (≈ 0.461 µM) |  |  |  |  |  |  |  |
| C[C@H]1COc2c(N3CCN(C)CC3)c(F)cc3c(=O)c(C(=O)O)cn1c23 [LVFX, levofloxacin, reference compound] |  |  |  |  |  |  |  |  |  |  |  |  |  |  | 0.013 (≈ 0.036 µM) | 0.78 (≈ 2.16 µM) | 0.1 (≈ 0.277 µM) | 0.1 (≈ 0.277 µM) | 0.13 (≈ 0.36 µM) | 0.2 (≈ 0.553 µM) | MIC (S. aureus, 870307; [6]): > 6.25 µg/mL; MIC (S. aureus, FDA 209P; [7]): 0.2 µg/mL (≈ 0.553 µM); MIC (S. epidermidis, 56500; [8]): 0.39 µg/mL (≈ 1.08 µM); MIC (S. flexneri, 2A 5503; [9]): 0.025 µg/mL (≈ 0.0692 µM); MIC (Ser. marcescens, 10100; [10]): 0.1 µg/mL (≈ 0.277 µM); MIC (Str. pneumoniae, J24; [11]): 0.78 µg/mL (≈ 2.16 µM); MIC (Str. pyogenes, G-36; [12]): 0.2 µg/mL (≈ 0.553 µM); MIC (X. maltophilia, IID 1275; [13]): 0.39 µg/mL (≈ 1.08 µM) |
| O=C(O)c1cn(C2CC2)c2cc(N3CCNCC3)c(F)cc2c1=O [CPFX, ciprofloxacin, reference compound] |  |  |  |  |  |  |  |  |  |  |  |  |  |  | ≤ 0.003 | 0.78 (≈ 2.35 µM) | 0.025 (≈ 0.0754 µM) | 0.025 (≈ 0.0754 µM) | ≤ 0.003 | 0.05 (≈ 0.151 µM) | MIC (S. aureus, 870307; [6]): 3.13 µg/mL (≈ 9.45 µM); MIC (S. aureus, FDA 209P; [7]): 0.1 µg/mL (≈ 0.302 µM); MIC (S. epidermidis, 56500; [8]): 0.2 µg/mL (≈ 0.604 µM); MIC (S. flexneri, 2A 5503; [9]): 0.006 µg/mL (≈ 0.0181 µM); MIC (Ser. marcescens, 10100; [10]): 0.025 µg/mL (≈ 0.0754 µM); MIC (Str. pneumoniae, J24; [11]): 0.1 µg/mL (≈ 0.302 µM); MIC (Str. pyogenes, G-36; [12]): 1.56 µg/mL (≈ 4.71 µM); MIC (X. maltophilia, IID 1275; [13]): 0.78 µg/mL (≈ 2.35 µM) |
| Nc1c(F)c(N2CCC(C(N)C3CC3)C2)c(F)c2c1c(=O)c(C(=O)O)cn2C1CC1F (stereo not drawn) [compound 5] | ≦0.003 μg/ml | 0.013 (≈ 0.0298 µM) | 0.013 (≈ 0.0298 µM) | 0.025 (≈ 0.0573 µM) | 0.013 (≈ 0.0298 µM) | 0.05 (≈ 0.115 µM) | 0.025 (≈ 0.0573 µM) | ≦0.003 μg/ml | ≦0.003 μg/ml | ≦0.003 μg/ml | 0.025 (≈ 0.0573 µM) | ≦0.003 μg/ml | ≦0.003 μg/ml | 0.05 (≈ 0.115 µM) |  |  |  |  |  |  |  |
| COc1c(N2CCC(C(N)C3CC3)C2)ccc2c(=O)c(C(=O)O)cn(C3CC3)c12 (stereo not drawn) [compound 8] | 0.006 µg/mL (≈ 0.0151 µM) | 0.05 (≈ 0.126 µM) | 0.1 (≈ 0.252 µM) | 0.2 (≈ 0.503 µM) | 0.05 (≈ 0.126 µM) | 0.39 (≈ 0.981 µM) | 0.2 (≈ 0.503 µM) | 0.006 µg/mL (≈ 0.0151 µM) | 0.025 µg/mL (≈ 0.0629 µM) | 0.1 µg/mL (≈ 0.252 µM) | 0.2 (≈ 0.503 µM) | 0.006 µg/mL (≈ 0.0151 µM) | 0.013 µg/mL (≈ 0.0327 µM) | 0.2 (≈ 0.503 µM) |  |  |  |  |  |  |  |
| Cc1c(N2CCC(C(N)C3CC3)C2)c(F)c(N)c2c(=O)c(C(=O)O)cn(C3CC3F)c12 (stereo not drawn) [compound 7] | ≦0.003 μg/ml | 0.013 (≈ 0.0301 µM) | 0.025 (≈ 0.0578 µM) | 0.025 (≈ 0.0578 µM) | 0.013 (≈ 0.0301 µM) | 0.05 (≈ 0.116 µM) | 0.025 (≈ 0.0578 µM) | ≦0.003 μg/ml | ≦0.003 μg/ml | ≦0.003 μg/ml | 0.05 (≈ 0.116 µM) | ≦0.003 μg/ml | ≦0.003 μg/ml | 0.05 (≈ 0.116 µM) |  |  |  |  |  |  |  |
